From PubChem BioAssay AID1918991 (Molecular Pharmacology Branch, DTP, NCI, 2023)

System: 186277-243-T-J2-PDC complex spheroid growth
Experiment: Anticancer human tumor 186277-243-T-J2-PDC patient-derived colon adenocarcinoma cell line growth inhibition [AhR]
Details: for IC50: curve of first compound; for viability, T/C: stronger effect = lower value
How it was run: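 Complex tumor spheroids co-cultured with HUVEC and human MSC stroma; AhR antagonists tested in combination with standard-of-care and investigational agents. Top concentration at or near clinical Cmax (else 10 microM), half-log dilutions; growth expressed as percent test/control.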

[1] = second compound 0.1 µM, first compound 0.0316 µM
[2] = second compound 0.1 µM, first compound 0.1 µM
[3] = second compound 0.316 µM, first compound 0.0316 µM
[4] = second compound 0.316 µM, first compound 0.1 µM
[5] = second compound 1 µM, first compound 0.0316 µM
[6] = second compound 1 µM, first compound 0.1 µM
[7] = second compound 3.16 µM, first compound 0.0316 µM
[8] = second compound 3.16 µM, first compound 0.1 µM
[9] = second compound 10 µM, first compound 0.0316 µM
[10] = second compound 10 µM, first compound 0.1 µM
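Also: spheroids exposed to compounds for seven days before the viability read.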
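For viability, T/C in this document: luminescent signal used as a stand-in for viable cell amount; 100% = DMSO vehicle control wells.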

Question: With `Cn1ncnc1C1c2n[nH]c(=O)c3cc(F)cc(c23)NC1c1ccc(F)cc1` (stereo not given) + Cc1ccccc1N=Nc1ccc(NC(=O)c2ccnn2C)c(C)c1 as the compound, how does the IC50 (second compound 0.1 µM) read?
Answer: Its IC50 is over 100 nM.

Question: What about the IC50 (second compound 0.316 µM) of the same compound?
Answer: The IC50 was over 100 nM.

Question: And the IC50 (second compound 1 µM)?
Answer: The IC50 was over 100 nM.

Question: And the IC50 (second compound 3.16 µM)?
Answer: The IC50 was over 100 nM.

Question: And the IC50 (second compound 10 µM)?
Answer: Its IC50 is over 100 nM.

Question: What about the viability, T/C (second compound 0.1 µM, first compound 0.000316 µM) of the same compound?
Answer: The viability, T/C was 107%.

Question: And the viability, T/C (second compound 0.1 µM, first compound 0.001 µM)?
Answer: The viability, T/C was 101%.

Question: What about the viability, T/C (second compound 0.1 µM, first compound 0.00316 µM) of the same compound?
Answer: The viability, T/C was 107%.

Question: And the viability, T/C (second compound 0.1 µM, first compound 0.01 µM)?
Answer: Its viability, T/C is 93.2%.

Question: And the viability, T/C [1]?
Answer: Its viability, T/C is 108%.

Question: What about the viability, T/C [2] of the same compound?
Answer: The viability, T/C was 107%.

Question: What about the viability, T/C (second compound 0.316 µM, first compound 0.000316 µM) of the same compound?
Answer: The viability, T/C was 98.8%.

Question: What about the viability, T/C (second compound 0.316 µM, first compound 0.001 µM) of the same compound?
Answer: The viability, T/C was 113%.

Question: What about the viability, T/C (second compound 0.316 µM, first compound 0.00316 µM) of the same compound?
Answer: Its viability, T/C is 101%.

Question: And the viability, T/C (second compound 0.316 µM, first compound 0.01 µM)?
Answer: The viability, T/C was 104%.

Question: And the viability, T/C [3]?
Answer: The viability, T/C was 107%.

Question: And the viability, T/C [4]?
Answer: Its viability, T/C is 103%.

Question: And the viability, T/C (second compound 1 µM, first compound 0.000316 µM)?
Answer: Its viability, T/C is 109%.

Question: What about the viability, T/C (second compound 1 µM, first compound 0.001 µM) of the same compound?
Answer: The viability, T/C was 98.3%.

Question: And the viability, T/C (second compound 1 µM, first compound 0.00316 µM)?
Answer: The viability, T/C was 109%.

Question: What about the viability, T/C (second compound 1 µM, first compound 0.01 µM) of the same compound?
Answer: Its viability, T/C is 116%.

Question: And the viability, T/C [5]?
Answer: Its viability, T/C is 105%.

Question: And the viability, T/C [6]?
Answer: The viability, T/C was 118%.

Question: What about the viability, T/C (second compound 3.16 µM, first compound 0.000316 µM) of the same compound?
Answer: Its viability, T/C is 101%.

Question: And the viability, T/C (second compound 3.16 µM, first compound 0.001 µM)?
Answer: The viability, T/C was 101%.

Question: What about the viability, T/C (second compound 3.16 µM, first compound 0.00316 µM) of the same compound?
Answer: The viability, T/C was 113%.

Question: And the viability, T/C (second compound 3.16 µM, first compound 0.01 µM)?
Answer: The viability, T/C was 105%.

Question: And the viability, T/C [7]?
Answer: Its viability, T/C is 119%.

Question: And the viability, T/C [8]?
Answer: The viability, T/C was 112%.

Question: What about the viability, T/C (second compound 10 µM, first compound 0.000316 µM) of the same compound?
Answer: The viability, T/C was 95.4%.

Question: What about the viability, T/C (second compound 10 µM, first compound 0.001 µM) of the same compound?
Answer: Its viability, T/C is 96.7%.

Question: What about the viability, T/C (second compound 10 µM, first compound 0.00316 µM) of the same compound?
Answer: Its viability, T/C is 101%.

Question: And the viability, T/C (second compound 10 µM, first compound 0.01 µM)?
Answer: The viability, T/C was 105%.

Question: And the viability, T/C [9]?
Answer: The viability, T/C was 95.3%.

Question: And the viability, T/C [10]?
Answer: Its viability, T/C is 98.7%.

Question: With `NS(=O)(=O)OCC1CC(n2ccc3c(NC4CCc5ccccc54)ncnc32)CC1O` (stereo not given) + Cc1ccccc1N=Nc1ccc(NC(=O)c2ccnn2C)c(C)c1 as the compound, how does the IC50 (second compound 0.1 µM) read?
Answer: Its IC50 is 853 nM.

Question: And the IC50 (second compound 0.316 µM)?
Answer: The IC50 was 633 nM.

Question: And the IC50 (second compound 1 µM)?
Answer: The IC50 was 590 nM.

Question: What about the IC50 (second compound 3.16 µM) of the same compound?
Answer: The IC50 was 457 nM.

Question: And the IC50 (second compound 10 µM)?
Answer: Its IC50 is 304 nM.

Question: And the viability, T/C [1]?
Answer: Its viability, T/C is 106%.

Question: What about the viability, T/C [2] of the same compound?
Answer: Its viability, T/C is 97.9%.

Question: And the viability, T/C (second compound 0.1 µM, first compound 0.316 µM)?
Answer: The viability, T/C was 77.6%.

Question: What about the viability, T/C (second compound 0.1 µM, first compound 1 µM) of the same compound?
Answer: Its viability, T/C is 43.7%.

Question: And the viability, T/C (second compound 0.1 µM, first compound 3.16 µM)?
Answer: Its viability, T/C is 23.1%.

Question: What about the viability, T/C (second compound 0.1 µM, first compound 10 µM) of the same compound?
Answer: Its viability, T/C is 7.4%.

Question: And the viability, T/C [3]?
Answer: Its viability, T/C is 109%.

Question: And the viability, T/C [4]?
Answer: The viability, T/C was 117%.

Question: And the viability, T/C (second compound 0.316 µM, first compound 0.316 µM)?
Answer: Its viability, T/C is 67.1%.

Question: And the viability, T/C (second compound 0.316 µM, first compound 1 µM)?
Answer: Its viability, T/C is 38%.

Question: And the viability, T/C (second compound 0.316 µM, first compound 3.16 µM)?
Answer: Its viability, T/C is 19.6%.

Question: And the viability, T/C (second compound 0.316 µM, first compound 10 µM)?
Answer: The viability, T/C was 8.23%.

Question: And the viability, T/C [5]?
Answer: Its viability, T/C is 110%.

Question: And the viability, T/C [6]?
Answer: The viability, T/C was 110%.

Question: What about the viability, T/C (second compound 1 µM, first compound 0.316 µM) of the same compound?
Answer: Its viability, T/C is 61.4%.

Question: And the viability, T/C (second compound 1 µM, first compound 1 µM)?
Answer: The viability, T/C was 38.6%.

Question: And the viability, T/C (second compound 1 µM, first compound 3.16 µM)?
Answer: The viability, T/C was 20.1%.

Question: What about the viability, T/C (second compound 1 µM, first compound 10 µM) of the same compound?
Answer: The viability, T/C was 9.57%.

Question: What about the viability, T/C [7] of the same compound?
Answer: Its viability, T/C is 103%.

Question: What about the viability, T/C [8] of the same compound?
Answer: Its viability, T/C is 97.5%.

Question: What about the viability, T/C (second compound 3.16 µM, first compound 0.316 µM) of the same compound?
Answer: Its viability, T/C is 50.2%.

Question: What about the viability, T/C (second compound 3.16 µM, first compound 1 µM) of the same compound?
Answer: The viability, T/C was 36.3%.

Question: And the viability, T/C (second compound 3.16 µM, first compound 3.16 µM)?
Answer: Its viability, T/C is 13.6%.

Question: And the viability, T/C (second compound 3.16 µM, first compound 10 µM)?
Answer: Its viability, T/C is 5.34%.

Question: And the viability, T/C [9]?
Answer: Its viability, T/C is 93.7%.

Question: What about the viability, T/C [10] of the same compound?
Answer: The viability, T/C was 80%.

Question: And the viability, T/C (second compound 10 µM, first compound 0.316 µM)?
Answer: Its viability, T/C is 43.5%.

Question: What about the viability, T/C (second compound 10 µM, first compound 1 µM) of the same compound?
Answer: The viability, T/C was 29.8%.

Question: And the viability, T/C (second compound 10 µM, first compound 3.16 µM)?
Answer: The viability, T/C was 10.1%.

Question: And the viability, T/C (second compound 10 µM, first compound 10 µM)?
Answer: The viability, T/C was 4.53%.

Question: Which results are given for `Nc1ncn(C2CC(O)C(CO)S2)c(=O)n1` (stereo not given) + Cc1ccccc1N=Nc1ccc(NC(=O)c2ccnn2C)c(C)c1?
Answer: IC50 (second compound 0.1 µM): > 300 nM; IC50 (second compound 0.316 µM): > 300 nM; IC50 (second compound 1 µM): > 300 nM; IC50 (second compound 3.16 µM): > 300 nM; IC50 (second compound 10 µM): > 300 nM; viability, T/C (second compound 0.1 µM, first compound 0.000949 µM): 97.2%; viability, T/C (second compound 0.1 µM, first compound 0.003 µM): 123%; viability, T/C (second compound 0.1 µM, first compound 0.00949 µM): 119%; viability, T/C (second compound 0.1 µM, first compound 0.03 µM): 104%; viability, T/C (second compound 0.1 µM, first compound 0.0949 µM): 132%; viability, T/C (second compound 0.1 µM, first compound 0.3 µM): 111%; viability, T/C (second compound 0.316 µM, first compound 0.000949 µM): 106%; viability, T/C (second compound 0.316 µM, first compound 0.003 µM): 106%; viability, T/C (second compound 0.316 µM, first compound 0.00949 µM): 105%; viability, T/C (second compound 0.316 µM, first compound 0.03 µM): 109%; viability, T/C (second compound 0.316 µM, first compound 0.0949 µM): 109%; viability, T/C (second compound 0.316 µM, first compound 0.3 µM): 116%; viability, T/C (second compound 1 µM, first compound 0.000949 µM): 103%; viability, T/C (second compound 1 µM, first compound 0.003 µM): 109%; viability, T/C (second compound 1 µM, first compound 0.00949 µM): 100%; viability, T/C (second compound 1 µM, first compound 0.03 µM): 127%; viability, T/C (second compound 1 µM, first compound 0.0949 µM): 127%; viability, T/C (second compound 1 µM, first compound 0.3 µM): 108%; viability, T/C (second compound 3.16 µM, first compound 0.000949 µM): 108%; viability, T/C (second compound 3.16 µM, first compound 0.003 µM): 104%; viability, T/C (second compound 3.16 µM, first compound 0.00949 µM): 107%; viability, T/C (second compound 3.16 µM, first compound 0.03 µM): 106%; viability, T/C (second compound 3.16 µM, first compound 0.0949 µM): 117%; viability, T/C (second compound 3.16 µM, first compound 0.3 µM): 120%; viability, T/C (second compound 10 µM, first compound 0.000949 µM): 96.5%; viability, T/C (second compound 10 µM, first compound 0.003 µM): 102%; viability, T/C (second compound 10 µM, first compound 0.00949 µM): 102%; viability, T/C (second compound 10 µM, first compound 0.03 µM): 99.5%; viability, T/C (second compound 10 µM, first compound 0.0949 µM): 93%; viability, T/C (second compound 10 µM, first compound 0.3 µM): 90.1%
